Assay results published in patent US8557737B2, “Methods of altering poppy characteristics” (priority 2005, dated 2013).

Experiments:
Assay type in all cases: in vivo, Papaver somniferum
poppy crops [1] = test: Example 16: field trial, metsulfuron-methyl, mesosulfuron-methyl and triasulfuron at row cover and ground cover/early run-up, morphine crop; details: for PLANT HEIGHT: 5 weeks after last application
Experimental: (§1) All trials were conducted on poppy crops. Seed was treated with Thiram (5.6 g of Thiram 800/kg seed) and Apron (4 g/kg) and sown at a rate of approximately 750 g/ha. Fertilisers were applied at sowing. Most commonly, either 50:50 lime:superphosphate/triple superphosphate at 125 kg/ha, or lime:superphosphate at 250 kg/ha, were mixed with seed and drilled at a depth of 15 mm. In the same operation, NPK (nitrogen:phosphorus:potassium), at various rates, was banded 75 mm below the seed, unless otherwise stated. All crops were subjected to herbicide sprays for weed control, fungicide sprays for disease control, insecticide sprays if appropriate and were irrigated as required.
(§2) All spray applications were made with a precision sprayer, using Silvan Lurmark flat-fan, low-drift nozzles (LD110-0015). Spray equipment was calibrated to deliver 153 L water/ha.
(§3) At harvest, a 2 m×4 m quadrat was placed in each plot (3 m×6 m, unless otherwise stated) and capsules hand-picked from this area. Capsules were broken up, seed and capsule material separated and weighed. Capsule moisture readings were taken with a moisture meter. Alkaloid yield data were calculated on Pesticide Research Manager (version 5 for Windows) using the formulae below. Briefly, capsule weight was adjusted for moisture to a dry weight, 5% of seed weight was added to this (this amount of capsule material regularly occurs in seed samples after processing) to give a capsule weight per plot. Seed weight was adjusted to 95% of crude weight. Straw weights were determined by multiplying dry capsule weight by 1.3 (estimated amount of stem material in a commercial harvest) and adjusted to 11% moisture. When Lontrel was applied to crops exact capsule and seed weight data were entered. Analyses of variance and a Multiple Range Test were performed on data using Pesticide Research Manager.
Trial to evaluate applications of metsulfuron-methyl (Compound 1), mesosulfuron-methyl (Compound 2) and triasulfuron (Compound 3), in a morphine crop. Treatment sprays were applied to crop at row cover and ground cover/early run-up, respectively. Plant heights were assessed 5 weeks after last application and lodging was assessed at capsule harvest.

poppy crops [2] = test: Example 18: field trial, triasulfuron, mesosulfuron-methyl and metsulfuron-methyl at row cover, mid run-up and early hook, morphine crop; details: MRU and LRU; for PLANT HEIGHT: 5 weeks after last application; for LODGING: at capsule harvest
Experimental: as §1, §2, §3
Trial to evaluate applications of triasulfuron, mesosulfuron-methyl and metsulfuron-methyl, in a morphine crop. […] Plant heights were measured 5 weeks after last application and lodging at capsule harvest.

poppy crops [3] = test: Example 10: field trial, triasulfuron and metsulfuron-methyl, morphine crop
Experimental: as §1, §2
as §3, with “Manager. Significant differences (P=0.05) between treatments are denoted by different lower case letters adjacent to treatment means in the tables of results.” for “Manager.”
[…] Treatment sprays were applied to crop at ground cover, mid run-up and bud-emergence, respectively.

poppy crops [4] = test: Example 17: field trial, triasulfuron, mesosulfuron-methyl and metsulfuron-methyl at early run-up and mid-late run-up, morphine crop; details: for PLANT HEIGHT: 6 weeks after last application; for LODGING: at capsule harvest
Experimental: as §1, §2, §3
Trial to evaluate applications of triasulfuron, mesosulfuron-methyl and metsulfuron-methyl, in a morphine crop. Treatment sprays were applied to with crop at early run-up and mid-late run-up, respectively. Plant heights were measured on 6 weeks after last application and lodging was assessed at capsule harvest.

[5] = Trt 3: COMPOUND 3 75 MG/HA + PULSE .2% V/V at RC and GC/ERU
[6] = Trt 4: COMPOUND 3 150 MG/HA + PULSE .2% V/V at RC and GC/ERU
[7] = Trt 3: COMPOUND 3 75 MG/HA + PULSE .2% V/V at RC
[8] = Trt 4: COMPOUND 3 150 MG/HA + PULSE .2% V/V at RC
[9] = COMPOUND 3 263 MG/HA + PULSE .2 % V/V at GC and RU
[10] = COMPOUND 3 525 MG/HA + PULSE .2 % V/V at GC (one application)
[11] = COMPOUND 3 525 MG/HA + PULSE .2 % V/V at GC and RU
[12] = Trt 3: COMPOUND 3 75 MG/HA + PULSE .2% V/V at ERU and M-LRU
[13] = Trt 4: COMPOUND 3 150 MG/HA + PULSE .2% V/V at ERU and M-LRU

## COc1nc(C)nc(NC(=O)NS(=O)(=O)c2ccccc2OCCCl)n1 [Compound 3, triasulfuron]
Poppy crops [1]; [5]
  CAPS/SEED RATIO: 1.259 b
  CROP WEIGHT: 3.47 b t/ha
  MORPHINE: 49.16 a kg/ha
  SEED: 1233 c kg/ha
  STRAW: 2211 a kg/ha
  STRAW MORPHINE: 2.21 a %
  PLANT HEIGHT: 103.4 b cm
Poppy crops [1]; [6]
  CAPS/SEED RATIO: 1.959 a
  CROP WEIGHT: 2.18 c t/ha
  MORPHINE: 32.34 c kg/ha
  SEED: 581 d kg/ha
  STRAW: 1589 c kg/ha
  STRAW MORPHINE: 2.03 b %
  PLANT HEIGHT: 88.6 c cm
Poppy crops [2]; [7]
  CAPS/SEED RATIO: 1.358 b
  CROP WEIGHT: 3.43 a t/ha
  MORPHINE: 51.88 a kg/ha
  SEED: 1161 b kg/ha
  STRAW: 2217 a kg/ha
  STRAW MORPHINE: 2.33 a %
  PLANT HEIGHT: 93.0 c cm
  LODGING: 2.2 a %
Poppy crops [2]; [8]
  CAPS/SEED RATIO: 2.664 a
  CROP WEIGHT: 2.32 c t/ha
  MORPHINE: 37.62 c kg/ha
  SEED: 482 c kg/ha
  STRAW: 1797 b kg/ha
  STRAW MORPHINE: 2.09 c %
  PLANT HEIGHT: 81.4 cm·days
  LODGING: 2.6 a %
Poppy crops [3]; [9]
  CAPSULE/SEED RATIO: 3.170 b
  CROP WEIGHT: 0.79 d t/ha
  HEIGHT: 71.0 cm·days
  MORPHINE: 13.17 d kg/ha
  SEED: 141 c kg/ha
  STRAW: 644 d kg/ha
  STRAW MORPHINE: 2.03 b %
Poppy crops [3]; [10]
  CAPSULE/SEED RATIO: 1.762 c
  CROP WEIGHT: 1.40 c t/ha
  HEIGHT: 75.6 c cm
  MORPHINE: 20.55 b kg/ha
  SEED: 408 b kg/ha
  STRAW: 992 b kg/ha
  STRAW MORPHINE: 2.06 b %
Poppy crops [3]; [11]
  CAPSULE/SEED RATIO: 1.338 days
  CROP WEIGHT: 0.17 e t/ha
  HEIGHT: 55.0 e cm
  MORPHINE: 1.99 e kg/ha
  SEED: 60 c kg/ha
  STRAW: 113 e kg/ha
  STRAW MORPHINE: 1.76 c %
Poppy crops [4]; [12]
  CAPS/SEED RATIO: 3.677 c
  CROP WEIGHT: 2.79 b t/ha
  MORPHINE: 51.94 a kg/ha
  SEED: 451 b kg/ha
  STRAW: 2299 a kg/ha
  STRAW MORPHINE: 2.26 b %
  PLANT HEIGHT: 100.2 bc cm
  LODGING: 1.6 b %
Poppy crops [4]; [13]
  CAPS/SEED RATIO: 6.016 b
  CROP WEIGHT: 1.71 c t/ha
  MORPHINE: 25.78 c kg/ha
  SEED: 175 c kg/ha
  STRAW: 1331 c kg/ha
  STRAW MORPHINE: 1.93 d %
  PLANT HEIGHT: 90.4 cm·days
  LODGING: 11.9 a %
